# Laboratory results as given in US20240182495A1, “ANTIBACTERIAL COMPOUNDS” (JANSSEN SCIENCES IRELAND UNLIMITED COMPANY, priority 2021, published 2024).
# Where two headings read alike, the source gives them in different places.
# Key:
# [1] = system: CYPs (all isoforms, or the isoforms not named for that compound); assay: CYP cocktail inhibition, all / other isoforms; assay type: in vitro ADME; details: read-out: CYPS IC50 (all / others)
# Text: (§1) The compounds of the invention/examples may have advantages associated with in vitro potency, kill kinetics (i.e. bactericidal effect) in vitro, PK properties, food effect, safety/toxicity (including liver toxicity, coagulation, 5-LO oxygenase), metabolic stability, Ames II negativity, MINT negativity, aqueous based solubility (and ability to formulate) and/or cardiovascular effect e.g. on animals (e.g. anesthetized guinea pig). Data that is generated/calculated may be obtained using standard methods/assays, for instance that are available in the literature or which may be performed by a supplier (e.g. Microsomal Stability Assay—Cyprotex, Mitochondrial toxicity (Glu/Gal) assay—Cyprotex, as well as literature CYP cocktail inhibition assays). GSH can be measured (reactive metabolites, […]) to observe if a dihydrodiol is observed by LCMS (fragmentation ions), which would correspond to a dihydroxylation on the core heterocycle.
# [2] = in vitro; details: mouse, plasma
# [3] = Mitochondrial toxicity (Glu/Gal) assay; assay type: cell-based; details: for Glu/Gal: Gal: galactose medium; for Glu/Gal: Glu: glucose medium
# Text: as §1
# [4] = system: Mycobacterium tuberculosis strain (EH4.0, GFP-expressing; Test 2: H37Rv); assay: MIC determination against M. tuberculosis, Test 1 (and/or Test 2); assay type: cell-based; details: Mycobacterium tuberculosis, H37RV, 168 h, 7 days incubation, fluorescence
# [5] = physchem; assay type: physicochemical
# [6] = Chemical stability testing in DMSO, ACN/H2O, ACN/0.1N HCl, ACN/0.1N NaOH (% by LCMS); assay type: physicochemical
# Protocol: Preliminary Protocol • Add 3 μl of a 10 mM DMSO stock solution to 1 ml of the following solvents in a 1.5 ml HPLC vial. • DMSO (reference solution) • H2O/Acetonitril 1/1 (assay solution) • 0.1N HCl/Acetonitril 1/1 (assay solution) • Mix well, […] LCMS • Compare the chromatograms of the two assay solutions with the reference solution and report the additional peaks as degradation peaks
# [7] = AMES II; details: score
# Text: as §1
# [8] = physchem; assay type: physicochemical; details: thermodynamic from solid
# Text: as §1
# [9] = biological target: hERG (Homo sapiens, UniProt Q12809); assay: sync hERG; assay type: cell-based
# [10] = LM Clint (microsomal stability), human; assay type: in vitro ADME; details: h (human) liver microsomes; read-out: LM Clint
# Text: as §1
# [11] = physchem
# [12] = MDCK permeability / efflux; details: dog, MDCK
# [13] = system: MDCK; assay: MDCK permeability / efflux; details: A to B with inhibitor
# [14] = in vitro; details: human, plasma
# [15] = biological target: 2C9 (Homo sapiens, UniProt P11712); assay: CYP cocktail inhibition, 2C9; assay type: in vitro ADME; details: read-out: CYPS IC50 2C9
# Text: as §1
# Sequence of hERG (Q12809 whole entry): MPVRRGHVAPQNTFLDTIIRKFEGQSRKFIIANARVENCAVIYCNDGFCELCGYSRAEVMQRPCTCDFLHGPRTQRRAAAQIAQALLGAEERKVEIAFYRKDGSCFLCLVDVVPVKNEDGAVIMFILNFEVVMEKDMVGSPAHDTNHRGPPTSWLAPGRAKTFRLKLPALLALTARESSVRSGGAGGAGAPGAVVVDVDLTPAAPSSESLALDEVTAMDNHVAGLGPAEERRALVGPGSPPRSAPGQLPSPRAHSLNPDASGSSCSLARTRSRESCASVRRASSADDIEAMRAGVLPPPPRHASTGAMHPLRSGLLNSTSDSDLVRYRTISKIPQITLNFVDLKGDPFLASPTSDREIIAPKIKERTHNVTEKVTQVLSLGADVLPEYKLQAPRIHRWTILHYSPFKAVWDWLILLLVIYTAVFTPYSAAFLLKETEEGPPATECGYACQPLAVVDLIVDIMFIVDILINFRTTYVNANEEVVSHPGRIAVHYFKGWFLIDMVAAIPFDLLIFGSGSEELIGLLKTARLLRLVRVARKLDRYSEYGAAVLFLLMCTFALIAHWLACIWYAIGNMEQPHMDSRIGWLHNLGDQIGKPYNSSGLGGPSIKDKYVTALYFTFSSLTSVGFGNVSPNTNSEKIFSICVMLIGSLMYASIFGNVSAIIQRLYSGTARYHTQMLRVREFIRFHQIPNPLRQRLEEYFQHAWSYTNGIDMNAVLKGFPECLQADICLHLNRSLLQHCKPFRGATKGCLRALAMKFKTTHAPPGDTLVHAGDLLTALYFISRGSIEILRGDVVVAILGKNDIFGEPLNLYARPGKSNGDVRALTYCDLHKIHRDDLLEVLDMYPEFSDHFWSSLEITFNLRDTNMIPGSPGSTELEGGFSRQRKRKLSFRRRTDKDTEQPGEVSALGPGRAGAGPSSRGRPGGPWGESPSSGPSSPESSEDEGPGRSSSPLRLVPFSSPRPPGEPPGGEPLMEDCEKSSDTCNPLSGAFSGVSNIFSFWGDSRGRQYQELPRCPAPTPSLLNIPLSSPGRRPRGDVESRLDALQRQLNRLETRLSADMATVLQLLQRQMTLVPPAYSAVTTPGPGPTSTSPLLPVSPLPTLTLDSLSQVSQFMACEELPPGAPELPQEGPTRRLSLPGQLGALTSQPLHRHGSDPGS
# Sequence of 2C9 (P11712 whole entry): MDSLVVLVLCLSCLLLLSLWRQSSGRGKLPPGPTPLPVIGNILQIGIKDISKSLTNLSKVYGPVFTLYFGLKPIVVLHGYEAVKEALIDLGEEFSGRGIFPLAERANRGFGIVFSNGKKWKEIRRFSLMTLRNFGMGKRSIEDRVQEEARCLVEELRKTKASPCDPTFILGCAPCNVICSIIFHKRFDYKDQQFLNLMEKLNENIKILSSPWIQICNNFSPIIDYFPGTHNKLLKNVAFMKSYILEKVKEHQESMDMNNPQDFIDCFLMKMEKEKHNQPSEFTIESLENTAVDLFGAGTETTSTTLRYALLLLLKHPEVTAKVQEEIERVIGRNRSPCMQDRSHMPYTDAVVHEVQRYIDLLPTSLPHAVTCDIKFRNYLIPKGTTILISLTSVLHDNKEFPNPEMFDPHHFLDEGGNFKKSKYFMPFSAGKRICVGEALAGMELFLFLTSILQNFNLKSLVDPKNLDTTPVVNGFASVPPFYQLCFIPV
smiles,measurement,setting,value
CCc1nc2ncc(Cl)cn2c1C(=O)NCc1ccc(-c2nc3n(n2)CCN(S(=O)(=O)C(F)(F)F)C3)cc1 [Compound 2],IC50,[1],> 20000 nM
same,fraction unbound,[2],0.0054
same,Glu/Gal: Gal,[3],> 100
same,Glu/Gal: Glu,[3],> 100
same,IC50,[4],10 nM
same,purity,"[5]; 0.065 mg/mL in SGF with 20% ACN, at 0 hr",99.56%
same,purity,"[5]; 0.065 mg/mL in SGF with 20% ACN, at 0.25 hr",99.38%
same,purity,"[5]; 0.065 mg/mL in SGF with 20% ACN, at 0.5 hr",99.21%
same,purity,"[5]; 0.065 mg/mL in SGF with 20% ACN, at 1 hr",98.89%
same,purity,"[5]; 0.065 mg/mL in SGF with 20% ACN, at 2 hr",98.28%
same,purity,"[5]; 0.065 mg/mL in SGF with 20% ACN, at 4 hr",97.1%
same,half-life at 0.065 mg/mL,[5]; simulated gi fluid,113 h
same,chemical stability (% by LCMS),"[6]; 72 h, 30 µM",100%
same,chemical stability (% by LCMS),"[6]; 72 h, 30 µM, pH 1.6",90.52%
same,AMES II,[7],1
same,solubility thermodynamic,"[8]; pH 2, simulated gastric fluid",0.99 µM
same,solubility thermodynamic,"[8]; pH 7, aqueous buffer",< 0.13 µM
same,IC50,[9],> 30000 nM
same,microsomal CLint,[10],9.3 µL/min/mg
same,solubility,[11]; fassif,< 5 µM
same,solubility,[11]; fessif,24.4 µM
same,efflux ratio,[12],12.6
same,MDCK AB+inh,[13],32.5
same,fraction unbound,[14],0.0117
O=C(NCc1ccc(-c2nc3n(n2)CCN(S(=O)(=O)C(F)(F)F)C3)c(F)c1)c1c(C(F)(F)F)nc2ccccn12 [Compound 6],IC50,[4],83.2 nM
same,purity,"[5]; 0.052 mg/mL in SGF with 33.3% ACN, remained so up to 4 hrs",99.88%
same,chemical stability (% by LCMS),"[6]; 48 h, 30 μM",100%
same,chemical stability (% by LCMS),"[6]; 48 h, 30 μM, pH 1.6",100%
CCc1nc2ncc(C)cn2c1C(=O)NCc1ccc(-c2nc3n(n2)CCN(S(=O)(=O)C(F)(F)F)C3)c(F)c1 [Compound 7],IC50,[1]; human,> 20000 nM
same,Glu/Gal: Gal,[3],> 200
same,Glu/Gal: Glu,[3],> 200
same,IC50,[4],8.51 nM
same,chemical stability (% by LCMS),"[6]; 72 h, 30 µM",100%
same,chemical stability (% by LCMS),"[6]; 72 h, 30 µM, pH 1.6",100%
same,solubility thermodynamic,"[8]; pH 2, simulated gastric fluid",125 µM
same,solubility thermodynamic,"[8]; pH 7, aqueous buffer",1.62 µM
same,IC50,[9],> 30000 nM
same,microsomal CLint,[10],22.6 µL/min/mg
same,IC50,[15],15500 nM
same,efflux ratio,[12],61.7
same,MDCK AB+inh,[13],21.4
CCc1nc2cc(OC)c(Cl)cn2c1C(=O)NCc1ccc(-c2nc3n(n2)CCN(S(=O)(=O)C(F)(F)F)C3)c(F)c1 [Compound 10],IC50,[4],> 500 nM
same,chemical stability (% by LCMS),"[6]; 72 h, 30 µM",97.03%
same,chemical stability (% by LCMS),"[6]; 72 h, 30 µM, pH 1.6",100%
CCc1nc2nc(N)c(Cl)cn2c1C(=O)NCc1ccc(-c2nc3n(n2)CCN(S(=O)(=O)C(F)(F)F)C3)c(F)c1 [Compound 12],IC50,[4],93.3 nM
same,chemical stability (% by LCMS),"[6]; 72 h, 30 µM",96.14%
same,chemical stability (% by LCMS),"[6]; 72 h, 30 µM, pH 1.6",97.06%
CCc1nc2cc(N)c(Cl)cn2c1C(=O)NCc1ccc(-c2nc3n(n2)CCN(S(=O)(=O)C(F)(F)F)C3)c(F)c1 [Compound 14],IC50,[4],105 nM
same,chemical stability (% by LCMS),"[6]; 72 h, 30 µM",100%
same,chemical stability (% by LCMS),"[6]; 72 h, 30 µM, pH 1.6",100%
CCc1nc2ccc(Cl)cn2c1C(=O)NCc1cnc(-c2nc3n(n2)CCN(S(=O)(=O)C(F)(F)F)C3)c(F)c1 [Compound 15],IC50,[4],501 nM
same,chemical stability (% by LCMS),"[6]; 72 h, 30 µM",97.03%
same,chemical stability (% by LCMS),"[6]; 72 h, 30 µM, pH 1.6",97.49%
CCc1nc2ccc(C)cn2c1C(=O)NCc1ccc(-c2nc3n(n2)CCN(S(=O)(=O)C(F)(F)F)C3)cc1 [Compound 24],IC50,[4],8.91 nM
same,chemical stability (% by LCMS),"[6]; 0 h, 30 μM",100%
same,chemical stability (% by LCMS),"[6]; 0 h, 30 μM, pH 1.6",100%
same,chemical stability (% by LCMS),"[6]; 0 h, 30 μM, pH 9",89.46%
same,chemical stability (% by LCMS),"[6]; 48 h, 30 μM",100%
same,chemical stability (% by LCMS),"[6]; 48 h, 30 μM, pH 1.6",100%
same,chemical stability (% by LCMS),"[6]; 48 h, 30 μM, pH 9",43.8%
